Assay results from patent US20250041245A1, “ENDOXIFEN FOR TREATMENT OF CANCERS” (Atossa Therapeutics, Inc., priority 2021, published 2025).
“And” between values parts separate entries of the source, which are not always exact repeats. Equal values may be shown once. “Also recorded” adds a separate entry of the source.

What was measured:
Assay type in all cases: cell-based, human
Parameters in all cases: key to Personalization Category: Personalization categories range from High, Good, Moderate, Low, to None; Personalization categories range from High, Good, Moderate, Low, to None; Personalization categories range from High, Good, Moderate, Low, to None; Personalization categories range from High, Good, Moderate, Low, to None; Personalization categories range from High, Good, Moderate, Low, to None; key to Sensitivity Category: Sensitivity categories range from High, Good, Moderate, Low, to None; Sensitivity categories range from High, Good, Moderate, Low, to None; Sensitivity categories range from High, Good, Moderate, Low, to None; Sensitivity categories range from High, Good, Moderate, Low, to None; Sensitivity categories range from High, Good, Moderate, Low, to None; AUC: unit not given beside the values
[1] = test system: patient-derived tumor organoids (PDTOs), primary peritoneal carcinoma; test: Endoxifen screen in PDTOs: primary peritoneal carcinoma
Method: (§1) This example describes screening endoxifen in patient-derived tumor organoids. Endoxifen was tested as a single agent on tumor organoids derived from patients diagnosed with various cancer types using a personalized cancer treatment screening assay (PARIS© Test, SEngine Precision Medicine). The screen utilized patient-derived tumor organoids (PDTOs) along with high-throughput drug screening and machine learning-guided data analysis to quantify the efficacy of endoxifen against samples derived from individual patients diagnosed with various cancer types. PDTOs are self-organizing, three-dimensional organoid structures that recapitulate structural, functional, and genomic aspects of in vivo organs. The PDTOs were grown in culture from patient tumor biopsy samples.
(§2) Fresh patient biopsy samples received following surgery were cleaned and purified. Immune cells (e.g., lymphocytes, blood cells), cancer-associated fibroblasts, and other non-tumor cells were removed to establish pure PDTOs for endoxifen testing. The tumor organoids were grown and expanded by supplying organ- and patient-specific growth factors and nutrients. The PDTOs were treated with increasing concentrations of endoxifen ranging from about 30 nM to about 10 μM, and the drug response was measured using a luminescence readout. A lower luminescence was indicative of a stronger drug response.
(§3) The results were analyzed using a “SEngine Precision Medicine” (SPM) scoring system to assess the sensitivity and personalization of each tumor organoid to endoxifen. The SPM score correlates with clinical outcomes, such that a higher SPM score for a specific PDTO-drug combination predicts a more favorable clinical outcome following treatment of the corresponding patient with the tested drug.
(§4) This example describes testing endoxifen efficacy against 17 distinct cancer types in patient-derived tumor organoids (PDTOs). Screening of PDTOs was performed as described in EXAMPLE 1. For each PDTO sample, the drug response was measured using a luminescent readout over a range of endoxifen concentrations. The drug response was evaluated based on the area under the fitted dose response curve (AUC) and the SPM scoring system. AUC values were normalized for each PDTO. Briefly, data points at each drug concentration were first normalized to a negative control, then a dose response drug curve was approximated using a four-parameter logistic model fitted to the normalized data points. The area under the curve was calculated from the normalized curve. Normalization allowed for comparison of AUC values between patient samples. The SPM scores were based on machine learning models that incorporate values for how well the drug kill patient cells (sensitivity metric), the relative drug responses of a patient to all other patients in a sample database (personalization metric), and knowledge of clinical outcomes for patients that had been evaluated with the personalized cancer screening assay (PARIS® Test, SEngine Precision Medicine).
The SPM scoring system evaluated whether a PDTO was unresponsive or responsive to endoxifen and the degree of drug response for PDTOs that were responsive to endoxifen. […] The sensitivity category was determined from the sensitivity metric and is a measure of overall cell death of a patient's cells in response to endoxifen at six concentrations. […]

[2] = test system: patient-derived tumor organoids (PDTOs), neuroblastoma; test: Endoxifen screen in PDTOs: neuroblastoma; details: each line one patient sample; for IC50: four-parameter logistic fit
Method: as §1, §2, §3, §4
(§5) The SPM scoring system evaluated whether a PDTO was unresponsive or responsive to endoxifen and the degree of drug response for PDTOs that were responsive to endoxifen. The SPM scoring system generated metrics an SPM score, predictive of clinical outcome, overall drug response (response category), drug sensitivity (sensitivity category), and drug personalization (personalization category). SPM scores ranged from 1-15, corresponding to the following drug response categories: no response (SPM 1-8), low response (SPM 9), moderate response (SPM 10-11), good response (SPM 12-13), and exceptional response (SPM 14-15). […] Moderate to good drug responses (SPM 10-13) may indicate that a drug has clinical relevance, possibly in combination with other drugs. The sensitivity category was determined from the sensitivity metric and is a measure of overall cell death of a patient's cells in response to endoxifen at six concentrations. […]

[3] = test system: patient-derived tumor organoids (PDTOs), melanoma; test: Endoxifen screen in PDTOs: melanoma
Method: as §1, §2, §3, §4, §5

[4] = melanoma PDTOs, each line one patient sample

## CC/C(=C(\c1ccc(O)cc1)c1ccc(OCCNC)cc1)c1ccccc1 [Endoxifen, 4-hydroxy-N-desmethyltamoxifen]
[1]; Homo sapiens, patient 72, four-parameter logistic fit
  IC50: 9.37 µM
[1]; patient 72
  Personalization Category: None
  Sensitivity Category: None
[1]; patient 72, normalized area under fitted dose response curve
  AUC: 0.9623
[1]; patient 72, score range 1-15
  SPM Score: 1
[2]; Homo sapiens
  IC50: 5.73 µM
[2]
  Personalization Category: Low and Moderate and None
  Response Category: Low (low response (SPM 9)); also recorded: Moderate (moderate response (SPM 10-11)); also recorded: None (no response (SPM 1-8))
  Sensitivity Category: Low and None
  IC50: 5.87 µM and 7.18 µM
[2]; normalized area under fitted dose response curve
  AUC: 0.8848 and 0.8184 and 0.9511
[2]; score range 1-15
  SPM Score: 9 and 10 and 1
[3]; Homo sapiens, skin cancer organoid assays, multiple skin cancers (summary statement)
  IC50: < 10 µM
[3]; [4]
  Personalization Category: Low and Good and High
  Response Category: Low (low response (SPM 9)); also recorded: Moderate (moderate response (SPM 10-11)); also recorded: Good (good response (SPM 12-13))
  Sensitivity Category: Low and Moderate
[3]; melanoma PDTOs, each line one patient sample, four-parameter logistic fit
  IC50: 2.74 µM and 3.3 µM and 1.44 µM and 7.06 µM
[3]; melanoma PDTOs, each line one patient sample, normalized area under fitted dose response curve
  AUC: 0.8952 and 0.7865 and 0.6541 and 0.8094
[3]; melanoma PDTOs, each line one patient sample, score range 1-15
  SPM Score: 9 and 11 (2×) and 13
